Source: patent US12564591B2, “HCK as a therapeutic target in MYD88 mutated diseases” (Dana-Farber Cancer Institute, Inc., priority 2019, dated 2026)
“Also recorded” adds a separate entry of the source. Like-named read-outs stand apart in the source and are kept apart here.

What was measured:
HCK [1] = target: T1, HCK (Homo sapiens, UniProt P08631); assay: Enzymatic / biochemical kinase assay (SelectScreen, Life Technologies)
[2] = tested on: Salmonella typhimurium tester strains (TA98, TA100, TA1535 and TA1537); assay: Ames genotoxicity testing; conditions: up to 50 μM with and without metabolic activation by rat liver S9 fraction
HCK [3] = target: T1, HCK; assay: ATP-competitive pulldown assay (desthiobiotin-ATP probe, western blot) in live BCWM.1 and TMD8 cells; type: cell-based; parameters: purchased Life Technologies (SelectScreen); conditions: live cell pre-treatment
[4] = tested on: HCK phosphorylation at Thr^209; conditions: MYD88 mutated WM and ABC DLBCL cells
[5] = Liver microsome stability; type: in vitro ADME; conditions: dog, liver microsomes; dogs; read-out: half-life t1/2 with purified microsomes
[6] = tested on: kinases in TMD8 ABC DLBCL cells; assay: KiNativ live-cell target engagement profiling (desthiobiotin-ATP probe); type: cell-based
[7] = tested on: BTK and ERK 1/2 phosphorylation; conditions: vector only, and BTK^WT transduced BCWM.1 or TMD8 cells, 1.0 hour
[8] = Liver microsome stability; type: in vitro ADME; conditions: human, liver microsomes
[9] = tested on: HCK activation (pHCK^Y411); assay: pHCK by PhosFlow in HCK^WT or HCK^T333M transduced BCWM.1 cells; type: cell-based; conditions: HCK^T333M but not HCK^WT expressing BCWM.1 cells
Excerpt: (§1) An HCK gatekeeper mutant HCK^T333M was generated and rescue experiments performed in MYD88 mutated BCWM.1 cells. Expression of HCK^T333M produced a more than 20-fold increase in resistance to Compound (I) versus vector or wild-type HCK transduced BCWM.1 cells (FIG. 5A).

BTK [10] = target: T2, BTK (Homo sapiens, UniProt Q06187); assay: ATP-competitive pulldown assay (desthiobiotin-ATP probe, western blot) in live BCWM.1 and TMD8 cells; type: cell-based; conditions: live cell pre-treatment
T2 sequence (Q06187 whole entry): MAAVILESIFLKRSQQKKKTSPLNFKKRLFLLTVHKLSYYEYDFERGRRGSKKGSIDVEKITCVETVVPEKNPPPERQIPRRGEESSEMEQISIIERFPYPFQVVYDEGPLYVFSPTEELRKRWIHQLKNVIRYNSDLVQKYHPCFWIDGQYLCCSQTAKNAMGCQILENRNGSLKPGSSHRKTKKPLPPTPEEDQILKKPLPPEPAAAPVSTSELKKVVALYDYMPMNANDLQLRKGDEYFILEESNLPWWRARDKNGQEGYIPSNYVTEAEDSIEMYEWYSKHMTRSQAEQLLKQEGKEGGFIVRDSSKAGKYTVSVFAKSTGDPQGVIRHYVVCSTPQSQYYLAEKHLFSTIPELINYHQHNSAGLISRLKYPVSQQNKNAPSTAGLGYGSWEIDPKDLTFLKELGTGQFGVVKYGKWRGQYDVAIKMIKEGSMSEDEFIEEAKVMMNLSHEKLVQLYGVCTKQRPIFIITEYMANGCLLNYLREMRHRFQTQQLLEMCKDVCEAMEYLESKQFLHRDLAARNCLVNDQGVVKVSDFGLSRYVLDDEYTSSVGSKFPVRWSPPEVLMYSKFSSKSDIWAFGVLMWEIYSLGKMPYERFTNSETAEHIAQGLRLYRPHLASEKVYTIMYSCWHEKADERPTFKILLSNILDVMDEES

[11] = Murine pharmacokinetics (intravenous and oral); type: in vivo; conditions: mouse, serum; for bioavailability: read-out: bioavailability (% F)
[12] = tested on: vector, HCK^WT or HCK^T333M transduced MWCL-1 WM cells; assay: HCK^T333M gatekeeper mutant rescue, dose-response 72 hours; type: cell-based
Method: Dose-responses of vector only or HCK^WT or HCK^T333M transduced MWCL-1 cells following the treatment Compound (I) for 72 hours (FIG. 6A).

[13] = tested on: p-HCK and p-BTK in WM patients LPCs; assay: p-HCK and p-BTK by PhosFlow in MYD88 mutated WM patient bone marrow tumor cells; type: cell-based, human
Method: (§2) The anti-tumor activity of Compound (I) was also assessed using primary MYD88 mutated bone marrow derived CD19-positive lymphoplasmacytic cells (LPCs) from WM patients, and compared effects against healthy donor CD19+ B-cells.

[14] = tested on: MYD88 mutated WM and ABC DLBCL cell lines versus MYD88 wild-type GCB DLBCL, Burkitt's Lymphoma, and multiple myeloma cell lines; assay: CellTiter-Glo cell viability, MYD88 mutated versus wild-type cell lines; type: cell-based
[15] = tested on: vector, HCK^WT or HCK^T333M transduced TMD8 ABC DLBCL cells; assay: HCK^T333M gatekeeper mutant rescue, dose-response 72 hours; type: cell-based
Method: Dose-responses of vector only or HCK^WT or HCK^T333M transduced […] cells following the treatment Compound (I) for 72 hours (FIG. 7A).

[16] = Liver microsome stability; type: in vitro ADME; conditions: mouse, liver microsomes
[17] = Survivability of treated subjects; type: in vivo; conditions: compared to subjects treated with other BTK inhibitors (e.g., ibrutinib, A419259)
hERG = hERG (Homo sapiens, UniProt Q12809); assay: hERG testing (patch clamp) for cardiotoxicity; type: cell-based; conditions: at 16 μM
Excerpt: (§3) […]. […] […].

[18] = tested on: vector, HCK^WT or HCK^T333M transduced BCWM.1 cells; assay: HCK^T333M gatekeeper mutant rescue, dose-response 72 hours; type: cell-based; conditions: versus vector or wild-type HCK transduced BCWM.1 cells
Excerpt: as §1

[19] = Liver microsome stability; type: in vitro ADME; conditions: rat, liver microsomes
[20] = tested on: pBTK, pAKT, pERK1/2, and pSYK; assay: Western blot of downstream signaling in HCK^WT or HCK^T333M transduced BCWM.1 cells; type: cell-based
Excerpt: as §1

LYN [21] = target: T3, LYN (Homo sapiens, UniProt P07948); assay: Enzymatic assay (SelectScreen, Life Technologies); type: biochemical
T3 sequence (P07948 whole entry): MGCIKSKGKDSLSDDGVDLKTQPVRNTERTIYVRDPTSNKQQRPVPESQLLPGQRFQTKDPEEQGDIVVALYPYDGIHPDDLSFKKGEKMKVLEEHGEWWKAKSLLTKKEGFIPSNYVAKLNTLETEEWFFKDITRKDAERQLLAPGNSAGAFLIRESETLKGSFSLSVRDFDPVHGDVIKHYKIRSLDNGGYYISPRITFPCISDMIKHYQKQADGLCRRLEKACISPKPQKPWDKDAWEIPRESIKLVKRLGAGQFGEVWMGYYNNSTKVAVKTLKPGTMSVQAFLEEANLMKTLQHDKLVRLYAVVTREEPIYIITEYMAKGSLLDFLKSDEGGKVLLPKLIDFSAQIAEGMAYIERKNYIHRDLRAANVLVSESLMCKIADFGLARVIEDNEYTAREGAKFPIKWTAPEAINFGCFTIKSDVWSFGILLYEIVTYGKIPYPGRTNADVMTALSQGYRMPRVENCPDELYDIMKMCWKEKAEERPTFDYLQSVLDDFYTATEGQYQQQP

BTK [22] = target: T2, BTK; assay: Enzymatic / biochemical kinase assay (SelectScreen, Life Technologies); parameters: purchased Life Technologies (SelectScreen)
CYP2C8 = CYP2C8 (Homo sapiens, UniProt P10632); assay: In vitro CYP inhibition; type: in vitro ADME; parameters: dose or concentration left out as unconfirmed; conditions: at 10 PM, read-out: CYP inhibition (2C8)
Sequence of CYP2C8 (P10632 whole entry): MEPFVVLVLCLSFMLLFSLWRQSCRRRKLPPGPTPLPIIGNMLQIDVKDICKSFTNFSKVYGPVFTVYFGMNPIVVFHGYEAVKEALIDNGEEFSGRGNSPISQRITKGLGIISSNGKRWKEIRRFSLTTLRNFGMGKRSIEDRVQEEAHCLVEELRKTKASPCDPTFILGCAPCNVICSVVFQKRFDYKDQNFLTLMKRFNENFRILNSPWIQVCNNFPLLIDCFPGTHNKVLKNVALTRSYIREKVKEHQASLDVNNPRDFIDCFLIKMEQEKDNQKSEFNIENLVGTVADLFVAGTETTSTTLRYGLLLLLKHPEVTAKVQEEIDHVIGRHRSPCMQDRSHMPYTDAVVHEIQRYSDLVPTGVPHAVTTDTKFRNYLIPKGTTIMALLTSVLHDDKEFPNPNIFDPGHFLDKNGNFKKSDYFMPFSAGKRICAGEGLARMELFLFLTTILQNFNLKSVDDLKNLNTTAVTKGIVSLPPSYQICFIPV
Excerpt: as §3

CYP2C19 = CYP2C19 (Homo sapiens, UniProt P33261); assay: In vitro CYP inhibition; type: in vitro ADME; parameters: dose or concentration left out as unconfirmed; conditions: at 10 PM, read-out: CYP inhibition (2C19)
Sequence of CYP2C19 (P33261 whole entry): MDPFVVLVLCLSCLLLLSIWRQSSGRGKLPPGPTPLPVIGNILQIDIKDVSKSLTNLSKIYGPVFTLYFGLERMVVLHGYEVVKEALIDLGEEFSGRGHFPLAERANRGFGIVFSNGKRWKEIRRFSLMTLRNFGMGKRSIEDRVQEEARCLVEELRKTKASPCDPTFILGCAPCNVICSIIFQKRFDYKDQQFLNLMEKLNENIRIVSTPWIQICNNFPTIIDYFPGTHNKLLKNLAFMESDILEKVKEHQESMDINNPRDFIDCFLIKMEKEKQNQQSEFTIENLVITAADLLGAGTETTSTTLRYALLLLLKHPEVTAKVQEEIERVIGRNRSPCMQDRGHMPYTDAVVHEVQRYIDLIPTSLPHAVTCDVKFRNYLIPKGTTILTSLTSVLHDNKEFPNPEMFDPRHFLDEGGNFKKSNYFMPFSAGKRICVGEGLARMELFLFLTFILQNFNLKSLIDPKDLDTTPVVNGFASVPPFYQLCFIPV
Excerpt: as §3

CYP2D6 = CYP2D6 (Homo sapiens, UniProt P10635); assay: In vitro CYP inhibition; type: in vitro ADME; parameters: dose or concentration left out as unconfirmed; conditions: at 10 PM, read-out: CYP inhibition (2D6)
Sequence of CYP2D6 (P10635 whole entry): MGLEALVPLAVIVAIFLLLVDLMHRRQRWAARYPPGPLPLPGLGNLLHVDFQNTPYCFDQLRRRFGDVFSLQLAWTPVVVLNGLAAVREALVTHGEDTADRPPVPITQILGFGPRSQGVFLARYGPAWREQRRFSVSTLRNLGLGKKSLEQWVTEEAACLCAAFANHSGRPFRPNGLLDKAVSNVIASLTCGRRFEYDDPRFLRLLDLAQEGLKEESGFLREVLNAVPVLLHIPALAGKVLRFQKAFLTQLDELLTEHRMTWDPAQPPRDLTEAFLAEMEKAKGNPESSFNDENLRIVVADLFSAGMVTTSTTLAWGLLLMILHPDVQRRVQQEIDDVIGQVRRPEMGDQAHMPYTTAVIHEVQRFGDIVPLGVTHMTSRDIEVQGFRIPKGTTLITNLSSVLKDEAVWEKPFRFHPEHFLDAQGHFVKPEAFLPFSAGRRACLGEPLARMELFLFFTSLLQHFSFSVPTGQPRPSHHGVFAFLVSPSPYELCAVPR
Excerpt: as §3

CYP1A = assay: In vitro CYP inhibition; type: in vitro ADME; parameters: dose or concentration left out as unconfirmed; conditions: at 10 PM; read-out: CYP inhibition (1A)
Excerpt: as §3

CYP2B6 = CYP2B6 (Homo sapiens, UniProt P20813); assay: In vitro CYP inhibition; type: in vitro ADME; parameters: dose or concentration left out as unconfirmed; conditions: at 10 PM, read-out: CYP inhibition (2B6)
Sequence of CYP2B6 (P20813 whole entry): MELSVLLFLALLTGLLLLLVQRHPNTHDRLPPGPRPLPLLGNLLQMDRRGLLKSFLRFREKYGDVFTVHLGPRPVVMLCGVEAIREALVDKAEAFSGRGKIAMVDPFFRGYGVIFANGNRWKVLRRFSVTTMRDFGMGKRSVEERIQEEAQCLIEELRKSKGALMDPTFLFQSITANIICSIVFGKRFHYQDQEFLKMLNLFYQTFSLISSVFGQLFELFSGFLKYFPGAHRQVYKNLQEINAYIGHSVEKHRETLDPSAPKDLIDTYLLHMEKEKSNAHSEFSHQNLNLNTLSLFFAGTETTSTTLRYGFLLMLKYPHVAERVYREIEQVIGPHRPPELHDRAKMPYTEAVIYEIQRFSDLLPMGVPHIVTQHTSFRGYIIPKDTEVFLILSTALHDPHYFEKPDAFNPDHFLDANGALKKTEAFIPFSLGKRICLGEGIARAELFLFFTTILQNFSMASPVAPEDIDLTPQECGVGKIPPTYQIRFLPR
Excerpt: as §3

CYP2C9 = CYP2C9 (Homo sapiens, UniProt P11712); assay: In vitro CYP inhibition; type: in vitro ADME; parameters: dose or concentration left out as unconfirmed; conditions: at 10 PM, read-out: CYP inhibition (2C9)
Sequence of CYP2C9 (P11712 whole entry): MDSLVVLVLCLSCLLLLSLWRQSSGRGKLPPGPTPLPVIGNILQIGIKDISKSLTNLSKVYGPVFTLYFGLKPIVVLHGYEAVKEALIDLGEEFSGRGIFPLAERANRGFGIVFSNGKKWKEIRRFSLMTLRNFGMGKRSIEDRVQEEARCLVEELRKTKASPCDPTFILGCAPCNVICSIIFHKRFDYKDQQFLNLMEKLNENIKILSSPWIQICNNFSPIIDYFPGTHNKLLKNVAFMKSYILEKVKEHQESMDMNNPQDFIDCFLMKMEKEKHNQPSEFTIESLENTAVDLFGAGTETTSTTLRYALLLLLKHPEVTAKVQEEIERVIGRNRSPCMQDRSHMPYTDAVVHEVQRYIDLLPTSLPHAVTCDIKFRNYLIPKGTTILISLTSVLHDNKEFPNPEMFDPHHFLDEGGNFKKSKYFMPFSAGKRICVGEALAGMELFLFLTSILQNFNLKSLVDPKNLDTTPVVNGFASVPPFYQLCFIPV
Excerpt: as §3

[23] = tested on: primary MYD88 mutated bone marrow derived CD19-positive lymphoplasmacytic cells (LPCs) from WM patients; assay: Apoptosis of primary WM patient lymphoplasmacytic cells; type: cell-based, human
Method: as §2

[24] = Tolerability study, daily oral dosing; type: in vivo; conditions: up to 75 mg/kg daily oral dosing, NOD-SCID mice dosed for >6 weeks, no adverse events observed
Excerpt: as §3

[25] = tested on: healthy donor CD19+ B-cells; assay: Apoptosis of healthy donor B-cells; type: cell-based, human
Method: as §2

Plasma protein binding = type: in vitro ADME
Excerpt: as §3

LYN [26] = target: T3, LYN; assay: ATP-competitive pulldown assay (desthiobiotin-ATP probe, western blot) in live BCWM.1 and TMD8 cells; type: cell-based; parameters: endogenous in cells; host or cells: BCWM.1 and TMD8 cells
panel of 464 kinases = assay: KINOMEscan kinome selectivity profiling (DiscoverX); type: binding; conditions: for S(1) score / S(10) score: 1.0 μM, panel of over 460 kinases
Method: The compounds were profiled at a concentration of 1.0 μM against a panel of over 460 kinases by DiscoverX.

[27] = Pharmacokinetics of A419259 under oral administration
[28] = read-out: T1/2 in liver microsomes
[29] = HCK^T333M expressing BCWM.1 cells

T1 sequence (P08631 whole entry): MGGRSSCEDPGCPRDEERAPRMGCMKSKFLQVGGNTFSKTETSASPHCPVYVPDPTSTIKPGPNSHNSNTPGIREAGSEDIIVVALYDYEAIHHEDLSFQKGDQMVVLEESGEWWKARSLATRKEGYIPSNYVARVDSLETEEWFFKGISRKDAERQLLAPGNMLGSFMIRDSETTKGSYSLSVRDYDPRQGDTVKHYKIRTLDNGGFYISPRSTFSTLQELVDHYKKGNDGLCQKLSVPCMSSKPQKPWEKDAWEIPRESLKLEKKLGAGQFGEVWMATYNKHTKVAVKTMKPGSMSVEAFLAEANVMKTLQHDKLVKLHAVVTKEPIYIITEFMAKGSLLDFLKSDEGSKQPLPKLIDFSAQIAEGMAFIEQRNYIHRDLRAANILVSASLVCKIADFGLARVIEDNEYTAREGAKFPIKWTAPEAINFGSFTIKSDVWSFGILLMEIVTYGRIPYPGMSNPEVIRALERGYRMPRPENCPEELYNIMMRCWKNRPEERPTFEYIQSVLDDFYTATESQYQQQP

CN1CCN(C2CCC(n3nc(-c4ccc(Oc5ccccc5)cc4)c4c(N)ncnc43)CC2)CC1 (stereo not shown) [Compound (I), 1-((1r,4r)-4-(4-methylpiperazin-1-yl)cyclohexyl)-3-(4-phenoxyphenyl)-1H-pyrazolo[3,4-d]pyrimidin-4-amine]
IC50s (in words) (HCK [1]): single-digit nanomolar | Ames genotoxicity [2]: negative | engagement of / binding to HCK (HCK [3]): robust engagement; also recorded: very strongly binds | inhibition of HCK phosphorylation [4]: robust inhibition | half-life [5]: 1 h | activity against SRC-family kinases (HCK, BLK, LYN, FRK), Tec-family kinases (BTK), ACK (TNK2), CSK, ErbB2, and ABL [6]: nanomolar activity | target engagement (block of kinase binding to desthiobiotin-ATP probe) ([6]; TMD8 ABC DLBCL cells treated at 1. μM): strongly targeted both HCK and BTK | BTK and ERK 1/2 phosphorylation [7]: effectively blocked | half-life ([8]; humans, read-out: half-life t1/2 with purified microsomes): 0.825 h | half-life [8, 28]: ≥ 1 h | HCK activation in the presence of compound [9]: persistent activation of HCK | BTK inhibition / binding (BTK [10]): effectively binds | clearance ([11]; intravenous, 2 mg/kg, read-out: in vivo clearance rate): 17.4 mL/min/kg | bioavailability ([11]; po, 10 mg/kg, 10 mg/kg oral): 49% | bioavailability ([11]; po, 25 mg/kg, 25 mg/kg oral): 55% | AUC ([11]; po, orally at 10 mg/kg): 5.2 µM·h | half-life ([11]; po, orally at 10 mg/kg and 25 mg/kg, read-out: T1/2): 15.1 to 16.9 h | AUC ([11]; po, orally at 25 mg/kg): 11.4 µM·h | half-life ([11]; 10 mg/kg oral, read-out: serum half-life (converted)): 15.1 h | half-life ([11]; 25 mg/kg oral, read-out: serum half-life (converted)): 16.9 h | half-life ([11]; intravenous administration (2 mg/kg), read-out: serum half-life (converted)): 11.5 h | effect of HCK^T333M on compound induced cell death [12]: rescues Compound (I) induced cell death | p-HCK and p-BTK levels [13]: reduction of p-HCK(T209) and p-BTK^Y223 | anti-tumor activity [14]: targeted anti-tumor activity | effect of HCK^T333M on compound induced cell death [15]: rescues Compound (I) induced cell death | half-life ([16]; mice, read-out: half-life t1/2 with purified microsomes): 1.77 h | half-life [16, 28]: ≥ 1 h | survivability [17]: increased survivability | hERG cardiotoxicity (patch clamp) (hERG): negative | increase in resistance by expression of HCK^T333M [18]: more than 20 fold | half-life ([19]; rats, read-out: half-life t1/2 with purified microsomes): > 2 h | half-life [19, 28]: ≥ 1 h | attenuation of pBTK, pAKT, pERK1/2, and pSYK [20, 29]: abrogated | pBTK [20, 29]: continued to show reduced activity | expression of pBTK, pAKT, pERK1/2, and p-SYK ([20]; HCK^WT expressing BCWM.1 cells): blocked the expression of pBTK, pAKT, pERK1/2, and p-SYK in a dose dependent manner | IC50s (in words) (LYN [21]): single-digit nanomolar | IC50s (in words) (BTK [22]): single-digit nanomolar | inhibition (CYP2C8): -3.8% | inhibition (CYP2C19): 0.8% | inhibition (CYP2D6): 24.9% | inhibition (CYP1A): -27.9% | inhibition (CYP2B6): 64.5% | inhibition (CYP2C9): -10.9% | apoptotic effect [23]: robust apoptosis | tolerability [24]: well-tolerated | apoptotic effect [25]: no apoptotic effect | fraction unbound (Plasma protein binding; dog, dogs): 0.05 | fraction unbound (Plasma protein binding; human, humans): 0.043 | fraction unbound (Plasma protein binding; mouse, mice): 0.023 | fraction unbound (Plasma protein binding; rat, rats): 0.045 | binding to LYN (LYN [26]): very strongly binds | S(1) score (panel of 464 kinases): 0.07 | S(10) score (panel of 464 kinases): 0.13 | S10 (panel of 464 kinases; panel of 464 kinases): 0.07 | S35 (panel of 464 kinases; panel of 464 kinases): 0.13 | targeted kinases (panel of 464 kinases; panel of 464 kinases): mainly limited to the Src-family kinases HCK, BLK, LYN, and FRK, and the Tec-family kinase BTK

CN1CCN([C@H]2CC[C@H](n3nc(-c4ccc(Oc5ccccc5)cc4)c4c(N)ncnc43)CC2)CC1 [Compound (I), 1-((1r,4r)-4-(4-methylpiperazin-1-yl)cyclohexyl)-3-(4-phenoxyphenyl)-1H-pyrazolo[3,4-d]pyrimidin-4-amine]
IC50 (HCK [1]): < 0.495 nM | IC50 (BTK [22]): 0.915 nM

CN1CCN(C2CCC(n3cc(-c4ccc(Oc5ccccc5)cc4)c4c(N)ncnc43)CC2)CC1 (stereo not shown) [Compound A419259, reference compound]
Tui2 [27]: 176.0 h | S(1) score (panel of 464 kinases): 0.07 | S(10) score (panel of 464 kinases): 0.13
